Assay results reported in patent US20100316529A1, “Anti-Microbial Systems and Methods” (priority 2001, published 2010).
“And” between values parts separate entries of the source, which are not always exact repeats. Equal entries are not always repeated.

Key:
Assay in all cases: EDTA salt dilution test, MIC/MBC
Assay type in all cases: cell-based
E. coli = details: three entries
Description: (§1) Protocol one: Broth dilutions:
(§2) Inoculate a 25 ml nutrient broth (Oxoid No2) in a sterile universal container with one of the following organisms; Pseudomonas aeruginosa, Proteus Mirabilis, E. coli, Klebsiella pneumoniae, Staph aureus, Coagulase negative staphylococci, Enterococcus faecalis or MRSA.
(§3) Incubate the broth at 37° C. overnight.
(§4) To make these concentrations put the EDTA needed for 10 mLs in only 9 mLs of broth in sterile universal containers, as this will be diluted further when the organisms are added.
(§5) Dilute the overnight broth cultures to 10^7 organisms/mL using more sterile nutrient broth.
(§6) Add 1 mL of this diluent to each of the EDTA series broths. This gives a final concentration of 10^6 organism/mL in the EDTA broths.
(§7) Incubate for 18 hours at 37° C.
(§8) Next day visually read the MIC's by observing the turbidity of the broths.
(§9) Plate out 1 uL of each dilution onto fresh blood agar plate and spread using a sterile plastic spreader.
(§10) Incubate overnight at 37° C.
(§11) Next day read the MBC's by performing colony counts.

Ent. faecalis = tested on: Ent. faecalis
Description: as §1, §2, §3, §4, §5, §6, §7, §8, §9, §10, §11

Kleb. pnemoniae = details: two entries
Description: as §1, §2, §3, §4, §5, §6, §7, §8, §9, §10, §11

MRSA = details: five entries
Description: as §1, §2, §3, §4, §5, §6, §7, §8, §9, §10, §11

Proteus mirabilis = details: two entries
Description: as §1, §2, §3, §4, §5, §6, §7, §8, §9, §10, §11

Pseudomonas aeruginosa = details: two entries
Description: as §1, §2, §3, §4, §5, §6, §7, §8, §9, §10, §11

Pseudomonas sp. = tested on: Pseudomonas sp.
Description: as §1, §2, §3, §4, §5, §6, §7, §8, §9, §10, §11

S. aureus = details: five entries
Description: as §1, §2, §3, §4, §5, §6, §7, §8, §9, §10, §11

S. capitis = details: two entries
Description: as §1, §2, §3, §4, §5, §6, §7, §8, §9, §10, §11

S. epidermidis = details: two entries
Description: as §1, §2, §3, §4, §5, §6, §7, §8, §9, §10, §11

S. lentus = tested on: S. lentus
Description: as §1, §2, §3, §4, §5, §6, §7, §8, §9, §10, §11

S. simulans = tested on: S. simulans
Description: as §1, §2, §3, §4, §5, §6, §7, §8, §9, §10, §11

S. xylosus = tested on: S. xylosus
Description: as §1, §2, §3, §4, §5, §6, §7, §8, §9, §10, §11

VRE = details: two entries, Exhibit A1
Description: as §1, §2, §3, §4, §5, §6, §7, §8, §9, §10, §11

Ent. faeculm = tested on: Ent. faeculm
Kleb. oxytoca = tested on: Kleb. oxytoca
Kleb. ornitholytica = tested on: Kleb. ornitholytica
Ent. cloacae = details: three entries
Steno. maltophilia = tested on: Steno. maltophilia
Cornyeform amycolatum = tested on: Cornyeform amycolatum
Coryneform strait/amy = tested on: Coryneform strait/amy
Acinetobacter baumanii = details: two entries, Exhibit A1
Proteus vulgaris = tested on: Proteus vulgaris

O=C([O-])CN(CCN(CC(=O)[O-])CC(=O)[O-])CC(=O)[O-].[Fe+3].[Na+] [Ferric-sodium salt EDTA]
>30 mg/mL: MBC, minimum concentration required to kill an entire population (Ent. faecalis; Exhibit A1) | MBC, minimum concentration required to kill an entire population (MRSA; Exhibit A1) | MBC, minimum concentration required to kill an entire population (S. aureus; Exhibit A1) | MBC, minimum concentration required to kill an entire population (S. capitis; Exhibit A1) | MBC, minimum concentration required to kill an entire population (S. epidermidis; Exhibit A1) | MBC, minimum concentration required to kill an entire population (S. lentus; Exhibit A1) | MBC, minimum concentration required to kill an entire population (S. simulans; Exhibit A1) | MBC, minimum concentration required to kill an entire population (S. xylosus; Exhibit A1) | MBC, minimum concentration required to kill an entire population (VRE) | MBC, minimum concentration required to kill an entire population (Ent. faeculm; Ent. faeculm, Exhibit A1)
4 mg/mL: MIC, minimum concentration required to inhibit growth (Ent. faecalis; Exhibit A2) | MIC, minimum concentration required to inhibit growth (Ent. faeculm; Ent. faecuim, Exhibit A2)
10 mg/mL: MIC, minimum concentration required to inhibit growth (Steno. maltophilia; Exhibit A2) | MBC, minimum concentration required to kill an entire population (Cornyeform amycolatum; Exhibit A1) | MIC, minimum concentration required to inhibit growth (Cornyeform amycolatum; Exhibit A2) | MBC, minimum concentration required to kill an entire population (Coryneform strait/amy; Exhibit A1) | MIC, minimum concentration required to inhibit growth (Coryneform strait/amy; Exhibit A2)
>20 mg/mL: MIC, minimum concentration required to inhibit growth (MRSA; Exhibit A2) | MIC, minimum concentration required to inhibit growth (S. aureus; Exhibit A2) | MIC, minimum concentration required to inhibit growth (S. capitis; Exhibit A2) | MIC, minimum concentration required to inhibit growth (S. epidermidis; Exhibit A2) | MIC, minimum concentration required to inhibit growth (S. lentus; Exhibit A2) | MIC, minimum concentration required to inhibit growth (S. simulans; Exhibit A2) | MIC, minimum concentration required to inhibit growth (S. xylosus; Exhibit A2)
15 mg/mL and >15 mg/mL: MIC, minimum concentration required to inhibit growth (E. coli; Exhibit A2)
15 mg/mL: MIC, minimum concentration required to inhibit growth (Pseudomonas aeruginosa; Exhibit A2) | MIC, minimum concentration required to inhibit growth (Pseudomonas sp.; Exhibit A2) | MIC, minimum concentration required to inhibit growth (Kleb. ornitholytica; Exhibit A2)
>15 mg/mL and 15 mg/mL: MIC, minimum concentration required to inhibit growth (Kleb. pnemoniae; Exhibit A2)
10 mg/mL and >15 mg/mL: MBC, minimum concentration required to kill an entire population (Acinetobacter baumanii)
>15 mg/mL: MBC, minimum concentration required to kill an entire population (E. coli; Exhibit A1) | MBC, minimum concentration required to kill an entire population (Kleb. pnemoniae; Exhibit A1) | MBC, minimum concentration required to kill an entire population (Proteus mirabilis; Exhibit A1) | MIC, minimum concentration required to inhibit growth (Proteus mirabilis; Exhibit A2) | MBC, minimum concentration required to kill an entire population (Pseudomonas aeruginosa; Exhibit A1) | MBC, minimum concentration required to kill an entire population (Pseudomonas sp.; Exhibit A1) | MBC, minimum concentration required to kill an entire population (Kleb. oxytoca; Exhibit A1) | MIC, minimum concentration required to inhibit growth (Kleb. oxytoca; Exhibit A2) | MBC, minimum concentration required to kill an entire population (Kleb. ornitholytica; Exhibit A1) | MBC, minimum concentration required to kill an entire population (Ent. cloacae; Exhibit A1) | MIC, minimum concentration required to inhibit growth (Ent. cloacae; Exhibit A2) | MBC, minimum concentration required to kill an entire population (Steno. maltophilia; Exhibit A1) | MBC, minimum concentration required to kill an entire population (Proteus vulgaris; Exhibit A1) | MIC, minimum concentration required to inhibit growth (Proteus vulgaris; Exhibit A2)
